From patent US20060270631A1, “Methods for the treatment and prevention of angiogenic diseases” (priority 2005, published 2006)
Where “and” joins values, the source holds several entries; their conditions need not be identical. Identical values can stand only once.

Assays:
[1] = Pharmacokinetics in mice; format: in vivo, mouse; settings: for AUC(0-inf) / Cmax / Tmax / half-life: female, Swiss-Webster, mouse, whole blood, mice
Description: Mice were anesthetized and blood was removed by cardiac puncture at time points ranging from 1 minute to 8 hours. […] Control blood samples were spiked with known amounts of internal standard and analyte to identify compound-specific peaks and to develop standard curves for quantification. Pharmacokinetic parameters were calculated using the WINNONLIN analysis software package (Pharsight).

[2] = tested on: female DBA/1 mice; experiment: Collagen-Induced Arthritis (CIA) model in mice; format: in vivo, mouse; settings: 100 mg/kg orally, Day 12
[3] = tested on: JC murine mammary adenocarcinoma; experiment: JC mammary adenocarcinoma syngenic tumor model in Balb/C mice
Description: FIG. 12. […] Balb/c female mice were injected subcutaneously with JC cells suspended in PBS. […] Whole body weight and tumor volume measurement were performed for up to 18 days. *p<0.05. Inset: Averaged body weights of mice from each group during course of study.
FIG. 13. […] Balb/c female mice were injected s.c. with JC cells suspended in PBS.
We determined the antitumor activity of representative SK inhibitors in a syngenic mouse tumor model that uses a transformed murine mammary adenocarcinoma cell line (JC, ATCC Number CRL-2116) and Balb/C mice (Charles River) (Lee et al., Oncol Res 14: 49 (2003)). Animals were housed under 12 hour light/dark cycles, with food and water provided ad libitum. Tumor cells (1×10^6) were implanted subcutaneously, and tumor volume was calculated using the equation: (L×W^2)/2. Upon detection of tumors, mice were randomized into treatment groups.

[4] = tested on: male Lewis rats; experiment: Adjuvant-Induced Arthritis model in rats; format: in vivo, rat; settings: Day 10
Description: FIG. 11. Effects of ABC294640 on disease progression in the adjuvant-induced arthritis model in rats. Male Lewis rats were injected subcutaneously with Mycobacterium butyricum, and symptoms of immune reactivity were present after 2 weeks. Responsive rats were randomized into treatment groups (n=8 per group), and received oral daily doses of: solvent alone (0.375% Tween-80); 100 mg/kg ABC294640; 35 mg/kg ABC294640; or 5 mg/kg ABC294640, or intraperitoneal injections of indomethacin (5 mg/kg) every other day. The severity of disease in each animal was quantified by measurement of the hind paw thickness. Panel A. Time course of hind paw arthritic response. Panel B. Final day (Day 10) hind paw thickness measurements. Panel C. Change in paw thickness of respective group versus non-arthritic rats (naive) at Day 10. *,p<0.05; ***, p<0.001 versus solvent alone group.
Adjuvant-induced arthritis is another widely used assay that recapitulates many features of human rheumatoid arthritis, and so is useful in the evaluation of new drug candidates. Age- and weight-matched male Lewis rats (150-170 g) were injected subcutaneously in the tail with 1 mg of Mycobacterium butyricum (Difco, killed dried) suspended in 0.1 ml of light mineral oil. Symptoms of immune reactivity were present after 2 weeks. Responsive rats were randomized into treatment groups, and received oral daily doses (1 ml) of: solvent alone (0.375% Tween-80); 100 mg/kg ABC294640; 35 mg/kg ABC294640; or 5 mg/kg ABC294640, or intraperitoneal injections of indomethacin (5 mg/kg) every other day as a positive control. The severity of disease in each animal was quantified by measurement of the hind paw thickness. As above, a reduction of 30% or greater was considered to be an indication of anti-inflammatory activity in this model.

[5] = tested on: sphingosine kinase (SK); experiment: Screening assay for inhibitors of SK; format: biochemical, human; settings: library screen
Excerpt: An assay for screening for inhibitors of SK has been established (French et al., Cancer Res 63: 5962 (2003)). […] Representative active compounds from four chemotypes of SK inhibitors, designated herein as Compounds I-IV, are shown in FIG. 1.

[6] = tested on: VEGF-induced vascular permeability; experiment: VEGF-induced vascular leakage (Miles assay) in nude mice; format: in vivo, mouse; settings: FIG. 7B
[7] = physchem; settings: aqueous with cosolvent or surfactant or cyclodextrin
Description: (§1) The compounds are soluble to at least 15 mg/ml in 50% dimethylsulfoxide:50% phosphate-buffered saline (DMSO:PBS) for intraperitoneal (IP) administration or Polyethylene glycol-400 (PEG400) for oral dosing.

[8] = tested on: diabetic Sprague-Dawley rats; experiment: Retinal vascular permeability in streptozotocin-diabetic rats; format: in vivo, rat; settings: 25 or 75 mg/kg IP, 5 days per week, Day 45 to Day 87; inner plexiform and outer nuclear layers
Description: FIG. 9. Effects of ABC 294640 on retinal vascular permeability in diabetic rats. From Day 45 through Day 87, Control (open bars) and Diabetic rats were treated with solvent (shaded bars) or ABC294640 at 25 mg/kg (horizontal-hatched bars) or 75 mg/kg (cross-hatched bars). On Day 87, retinal leakage in each animal was measured. Values represent the mean±sd for 3-5 rats per group.
Male Sprague-Dawley rats weighing 150-175 g were used. Diabetes was produced by intraperitoneal injection of streptozotocin (65 mg/kg in citrate buffer) after overnight fasting. Sham-injected non-diabetic animals were also carried as controls. Blood glucose was measured three days post-injection and animals with blood glucose over 250 mg/dL were used as diabetic rats for the study. Blood glucose levels and body weights were monitored weekly throughout the study. On Day 45, retinal vascular permeability was measured in a group of control and diabetic rats (Antonetti et al., Diabetes 47: 1953 (1998), Barber et al., Invest Ophthalmol Vis Sci 46: 2210 (2005)). […] Sections were dewaxed and viewed with an Olympus OM-2 fluorescence microscope fitted with a Sony CLD video camera. Fluorescence intensities of digital images were measured using Leica Confocal Software (Version 2.61, build 1538, LCS Lite, 2004). […]

[9] = tested on: female Swiss-Webster mice; settings: mouse, in vivo
Description: as §1

[10] = tested on: endogenous SK; experiment: Cellular SK activity in bovine retinal endothelial cells; format: cell-based; settings: 4 hours
Description: FIG. 3. Inhibition of cellular SK activity in RECs. Bovine retinal endothelial cells were incubated with 20 μM dimethylsphingosine (DMS) or 25 μg/mL Compound I, Compound II or Compound V (approximately 80 μM for each compound) for 4 hours before the addition of 0.4 μCi of [^3H]sphingosine. After 15 minutes, cells were lysed and extracted with chloroform: methanol. The total amounts of [^3H]sphingosine in the organic phase and [^3H]S1P in the aqueous phase were then determined. Values represent the mean±SD of duplicate samples in a typical experiment.
Cellular S1P formation assay. Cells were grown to confluency in 24-well tissue culture plates and serum-starved for 24 hours as described above. Cells were then treated with 1% DMSO (as the drug vehicle), 20 μM dimethylsphingosine, or the indicated concentration of an SK inhibitor for 4 hours. The cells were then incubated with [^3H]sphingosine for 15 minutes, and the formation of [^3H]S1P was measured as previously described (French et al., Cancer Res 63: 5962 (2003)). In some assays, the cells were serum-starved for 24 hours and then treated with VEGF (50 ng/mL) alone or in the presence of an SK inhibitor for an additional 12 hours. [^3 H]Sphingosine was then added for 15 minutes, and its conversion to [^3H]S1P was measured as indicated above.
A cell-based assay in which the phosphorylation of exogenously added [^3H]sphingosine to [^3H]S1P by endogenous SK can be quantified (French et al., Cancer Res 63: 5962 (2003)) was used to evaluate the effects of test compounds on the activity of SK in intact cells. In this assay, cells are incubated with [^3 H]sphingosine for an appropriate period of time, and then [^3H]sphingosine and [^3H]S1P (formed by endogenous SK activity) are separated by extraction and levels of both species are determined by scintillation counting. We have used a number of cell lines in this assay to confirm that the SK inhibitors are active in multiple intact cell systems. For example, human umbilical vein endothelial cells (HUVECs) are commonly used as a model of human vasculature. […] Similarly, the enzymatic activity of SK in bovine RECs, and its sensitivity to SK inhibitors were assessed. […] Each of inhibitors of SK (Compound I, Compound II and Compound V) was also active against the endogenous SK activity in the bovine RECs.

SMILES: O=C(NCc1ccncc1)C12CC3CC(C1)CC(c1ccc(Cl)cc1)(C3)C2 [ABC294640]
- blood levels versus IC50 for inhibition of SK activity ([1]; during the entire study (up to 8 hours)): exceeded the IC50
- AUC(0-inf) ([1]; IV 50 mg/kg): 56900 ng·h/mL and 137 µM·h
- Cmax ([1]; IV 50 mg/kg): 31100 ng/mL and 74 µM
- Tmax ([1]; IV 50 mg/kg): 0 h
- half-life ([1]; IV 50 mg/kg): 1.4 h
- AUC(0-inf) ([1]; Oral 50 mg/kg): 37500 ng·h/mL and 90.1 µM·h
- Cmax ([1]; Oral 50 mg/kg): 8000 ng/mL and 19 µM
- Tmax ([1]; Oral 50 mg/kg): 0.25 h
- half-life ([1]; Oral 50 mg/kg): 4.5 h
- reduction in clinical score versus vehicle ([2]; 6 days per week): 67%
- reduction in the increase in hind paw thickness versus vehicle ([2]; 6 days per week): 90%
- histologic damage of tibiotarsal joints [2]: significantly reduced
- inhibition of tumor growth ([3]; 100 mg/kg orally on odd days, PEG400): 69%
- therapeutic index (nontoxic dose/antitumor activity) ([3]; female, Balb/c, mouse, in vivo): greater than 30
- toxicity to the tumor-bearing mice ([3]; mouse, in vivo): without toxicity
- EC50 for inhibition of tumor growth ([3]; oral, odd days, dose-response, FIG. 13): approximately 35 mg/kg
- reduction in the arthritic response (hind paw thickness) ([4]; 5 mg/kg oral daily): 13%
- reduction in the arthritic response (hind paw thickness) ([4]; 35 mg/kg oral daily): 42%
- reduction in the arthritic response (hind paw thickness) ([4]; 100 mg/kg oral daily): 76%
- inhibition of SK [5]: inhibit SK
- VEGF-promoted dye leakage into mouse skin ([6]; 75 mg/kg intraperitoneal): suppressed
- VEGF-promoted dye leakage into mouse skin ([6]; 100 mg/kg oral gavage): suppressed
- solubility [7]: ≥ 15 mg/mL
- FITC-BSA leakage into the retina versus untreated diabetic rats [8]: substantially reduced
- nontoxic dose [9]: 1000 mg/kg
- dose with no immediate or delayed toxicity, acute ([9]; ip): at least 50 mg/kg
- dose without noticeable toxicity ([9]; po): at least 100 mg/kg

SMILES: O=C(NN=Cc1c(O)ccc2ccccc12)c1cc(-c2ccc3ccccc3c2)n[nH]1 [Compound I]
- endogenous SK activity in bovine RECs ([10]; 25 μg/mL (approximately 80 μM)): active

SMILES: O=C1C(=Cc2ccc(O)c(O)c2)Oc2ccccc21 [Compound V]
- endogenous SK activity in bovine RECs ([10]; 25 μg/mL (approximately 80 μM)): active

SMILES: CCCCCCCCCCCCC/C=C/[C@@H](O)[C@H](CO)N(C)C [DMS, dimethylsphingosine, reference compound]
- endogenous SK activity in bovine RECs ([10]; 20 μM, positive control): inhibition of SK
